Source: patent US9775881B2, “Methods of treating mesothelioma by administration of compounds comprising FGFR1 ECD” (Five Prime Therapeutics, Inc., priority 2013, dated 2017)

How the values were obtained:
Assay type in all cases: in vivo, mouse
ACHN xenograft model = assay: ACHN xenograft model, FGFR1-ECD.339-Fc alone and with pazopanib
Description: (§1) The cells were implanted subcutaneously over the right flank of the mice at 5×10^6 cells/100 μl/mouse.

786-0 xenograft model = assay: 786-0 xenograft model, FGFR1-ECD.339-Fc alone and with pazopanib; conditions: FGFR1-ECD.339-Fc 15 mg/kg IP twice per week, pazopanib 100 mg/kg oral daily
Description: as §1

A498 xenograft model = assay: A498 xenograft model, FGFR1-ECD.339-Fc alone and with pazopanib; conditions: FGFR1-ECD.339-Fc 15 mg/kg IP twice per week, pazopanib 100 mg/kg oral daily
Description: as §1

Caki-2 xenograft model = assay: Caki-2 xenograft model, FGFR1-ECD.339-Fc alone and with pazopanib; conditions: FGFR1-ECD.339-Fc 15 mg/kg IP twice per week, pazopanib 100 mg/kg oral daily
Description: as §1

SK-Hep-1 xenograft model [1] = assay: SK-Hep-1 xenograft model, FGFR1-ECD.339-Fc alone and with pazopanib; conditions: 15 mg/kg IP twice per week, p=0.0076
Description: as §1

HepG2 xenograft model [2] = assay: HepG2 xenograft model, FGFR1-ECD.339-Fc single agent; conditions: 15 mg/kg IP twice per week
Description: (§2) Six week old female CB17 SCID mice were purchased from Charles River Laboratories (Wilmington, Mass.) and were acclimated for 1 week before the start of the study. Human hepatocellular carcinoma (HCC) cell lines HepG2 and Hep3B were purchased from ATCC (Manassas, Va.) and Huh7 was purchased from JCRB (Japanese Collection of Research Bioresources). The cells were cultured for three passages in complete growth medium to expand for implantation. HepG2 and Hep3B cells were cultured in Dulbecco's Modified Eagle Medium (DMEM) supplemented with 10% Fetal Bovine Serum (FBS), 2 mM L-Glutamine, and Penicillin-Streptomycin antibiotic solution. […]
(§3) When the cultured cells reached 85-90% confluence, cells were harvested and resuspended in cold Ca^2+ and Mg^2+ free phosphate buffered saline (PBS) containing 50% Matrigel. […] Mice were monitored twice weekly following cell implantation for tumor growth.
(§4) FGFR1-ECD.339-Fc (FP-1039) or albumin as a negative control was dosed at 15 mg/kg via intraperitoneal injection twice per week. […] Upon initiation of therapy, tumor sizes were measured in each mouse twice weekly. The length and width of each tumor was measured using calipers and the tumor size calculated according to the formula Tumor size (mm^3)=[…]. […]
(§5) Comparisons of tumor volume as a consequence of treatment with FP-1039 were determined to be statistically significant if P<0.05. […]

Huh7 xenograft model = assay: Huh7 xenograft model, FGFR1-ECD.339-Fc single agent; conditions: 15 mg/kg IP twice per week
Description: as §2, §3, §4, §5

Hep3B xenograft model = assay: Hep3B xenograft model, FGFR1-ECD.339-Fc single agent; conditions: 15 mg/kg IP twice per week
Description: as §2, §3, §4, §5

SK-Hep-1 xenograft model [3] = assay: SK-Hep-1 xenograft model, FGFR1-ECD.339-Fc alone and with sorafenib; conditions: 61 days, FGFR1-ECD.339-Fc 15 mg/kg IP twice per week (p=0.0036), sorafenib 20 mg/kg oral five times per week (p<0.0001)
Description: as §1

HepG2 xenograft model [4] = assay: HepG2 xenograft model, FGFR1-ECD.339-Fc alone and with sorafenib
Description: FGFR1-ECD.339-Fc as a single agent, and in combination with sorafenib, was also tested in a HepG2 xenograft model.

NCI-H226 xenograft = assay: NCI-H226 mesothelioma tumor xenograft model, dose response; conditions: SCID mice, day 29
Description: Seven week old female SCID mice (Taconic, Hudson, N.Y.) were implanted subcutaneously with NCI-H226 cells (ATCC, Manassas, Va.) at 5×10^6 cells/mouse and tumor-bearing mice were randomized into 4 groups (n=8/group) when tumors reached ˜176-277 mm^3 in size. Mice were treated with FGFR1-ECD.339-Fc at three different concentrations (1.024, 5.12 or 25.6 mg/kg) three times a week (t.i.w.) for 29 days. Tumor size and body weights were measured twice a week.

MSTO-211H xenograft = assay: MSTO-211H mesothelioma tumor xenograft model, dose response; conditions: SCID mice, day 29
Description: Five to six week old female SCID mice were implanted subcutaneously with MSTO-211H cells (ATCC, Manassas, Va.) at 5×10^6 cells/mouse and tumor-bearing mice were randomized into 3 groups (n=10/group) when tumors reached ˜150-225 mm^3 in size. Mice were treated with FGFR1-ECD.339-Fc at two different concentrations (5.12 or 25.6 mg/kg) three times a week (t.i.w.) for 29 days. Tumor size and body weights were measured twice a week.

[5] = tested on: NCI-H226 (mesothelioma) xenograft; assay: Blood vessel density by MECA-32 IHC in NCI-H226 xenograft tumors; conditions: NCI-H226 tumors harvested day 30; 1.024, 5.12 or 25.6 mg/kg t.i.w. for 29 days
Description: Endothelial cell immunohistochemical (IHC) staining using a rat anti-mouse pan-endothelial cell antigen antibody (MECA-32; BD Biosciences, Franklin Lakes, N.J.) was performed on tumors from a NCI-H226 (mesothelioma) xenograft study. Tumor-bearing mice were treated with either vehicle (0.9% saline) or increasing doses of FGFR1-ECD.339-Fc (1.024, 5.12, or 25.6 mg/kg) three times a week (t.i.w.) for 29 days, as described above. Tumors were harvested on day 30. Quantification of MECA-32 IHC staining was analyzed by measuring the number of blood vessels/tissue area.

HLF xenograft model = assay: HLF xenograft model, FGFR1-ECD.339-Fc alone and with sorafenib; conditions: 24 days, FGFR1-ECD.339-Fc 15 mg/kg IP twice per week (p=0.0175), sorafenib 20 mg/kg oral five times per week (p=0.0020)
Description: Six week old female CB17 SCID mice were purchased from Charles River Laboratories (Wilmington, Mass.) and were acclimated for 1 week before the start of the study. […] The cells were cultured for three passages in complete growth medium to expand for implantation. HLF cells were cultured in Dulbecco's Modified Eagle Medium (DMEM) supplemented with 10% Fetal Bovine Serum (FBS) and Antibiotic-Antimycotic solution. Cells were grown at 37° C. in a humidified atmosphere with 5% CO2.
The cells were implanted subcutaneously over the right flank of the mice at 2.5×10^6 cells/100 μl/mouse. Mice were monitored twice weekly following cell implantation for tumor growth. […]
FGFR1-ECD.339-Fc or albumin as a negative control, was dosed at 15 mg/kg via intraperitoneal (IP) injection twice per week. […] Upon initiation of therapy, tumor sizes were measured in each mouse twice weekly. The length and width of each tumor was measured using calipers and the tumor size calculated according to the formula above. […]
Comparisons of tumor volume as a consequence of treatment with FGFR1-ECD.339-Fc and/or sorafenib were determined to be statistically significant if P<0.05. P-values were calculated using unpaired, two-tailed t-test analyses of the calculated tumor volumes on day 24 following initiation of treatment.

Row | Compound | tumor growth inhibition (ACHN xenograft model; CB17 SCID mice, 15 mg/kg IP twice per week, day 63, p<0.0001) | response of xenograft model to single therapy (tumor volume) (ACHN xenograft model; FGFR1-ECD.339-Fc 15 mg/kg IP twice per week) | response of xenograft model to single therapy (tumor volume) (786-0 xenograft model) | response of xenograft model to single therapy (tumor volume) (A498 xenograft model) | response of xenograft model to single therapy (tumor volume) (Caki-2 xenograft model) | response of xenograft model to single therapy (tumor volume) (SK-Hep-1 xenograft model [1]) | single agent efficacy (tumor volume) (HepG2 xenograft model [2]) | single agent efficacy (tumor volume) (Huh7 xenograft model) | single agent efficacy (tumor volume) (Hep3B xenograft model) | response of xenograft model to single therapy (tumor volume) (SK-Hep-1 xenograft model [3]) | single agent effect on tumor growth (HepG2 xenograft model [4]) | tumor growth inhibition (TGI) (NCI-H226 xenograft; 1.024 mg/kg three times a week) | tumor growth inhibition (TGI) (NCI-H226 xenograft; 5.12 mg/kg three times a week) | tumor growth inhibition (TGI) (NCI-H226 xenograft; 25.6 mg/kg three times a week) | tumor growth inhibition (TGI) (MSTO-211H xenograft; 5.12 mg/kg three times a week) | tumor growth inhibition (TGI) (MSTO-211H xenograft; 25.6 mg/kg three times a week) | blood vessel density (MECA-32 IHC), inner region [5] | blood vessel density (MECA-32 IHC), outer region [5] | blood vessel density (MECA-32 IHC), outer+inner region (whole tumor mass) [5] | response of xenograft model to single therapy (tumor volume) (HLF xenograft model)
1 | FGFR1-ECD.339-Fc: human FGFR1 extracellular domain ending at amino acid 339 fused to Fc; SEQ ID NO: 6 (mature form) or SEQ ID NO: 5 (with signal peptide) | 51% | responded | did not respond | little response | little response | responded | no single agent efficacy | no single agent efficacy | no single agent efficacy | responded | not effective as a single agent | 16.2% | 56.8% | 77.8% | 20.3% | 50.1% | no significant differences | dose-dependent and a statistically-significant reduction | dose-dependent and a statistically-significant reduction | responded
2 | CNC(=O)c1cc(Oc2ccc(NC(=O)Nc3ccc(Cl)c(C(F)(F)F)c3)cc2)ccn1 [sorafenib, reference compound] | – | – | – | – | – | – | – | – | – | responded | inhibits tumor growth | – | – | – | – | – | – | – | – | responded
